Data as given in patent publication US6316436A, “Inhibitors of prenyl-protein transferase” (Merck & Co., Inc., priority 1999, dated 2001).

Target: T1, human FPTase (Homo sapiens, UniProt P49354+P49356)
T1 construct: made in house
Assay: In vitro inhibition of Ras farnesyl transferase (FPTase inhibition assay)
Format: biochemical
Settings: 30° C.; 650 nM Ras-CVLS, 100 nM farnesyl diphosphate; recombinant FPTase; read-out: IC50 for inhibitory activity against human FPTase
Method: In Vitro Inhibition of Ras Farnesyl Transferase
Isoprenyl-protein transferase activity assays are carried out at 30° C. unless noted otherwise. A typical reaction contains (in a final volume of 50 μL): [^3 H]farnesyl diphosphate, Ras protein, 50 mM HEPES, pH 7.5, 5 mM MgCl2, 5 mM dithiothreitol, 10 μM ZnCl2, 0.1% polyethyleneglycol (PEG) (15,000-20,000 mw) and isoprenyl-protein transferase. The FPTase employed in the assay is prepared by recombinant expression as described in Omer, C. A., Kral, A. M., Diehl, R. E., Prendergast, G. C., Powers, S., Allen, C. M., Gibbs, J. B. and Kohl, N. E. (1993) Biochemistry 32:5167-5176. After thermally pre-equilibrating the assay mixture in the absence of enzyme, reactions are initiated by the addition of isoprenyl-protein transferase and stopped at timed intervals (typically 15 min) by the addition of 1 M HCl in ethanol (1 mL). The quenched reactions are allowed to stand for 15 m (to complete the precipitation process). After adding 2 mL of 100% ethanol, the reactions are vacuum-filtered through Whatman GF/C filters. Filters are washed four times with 2 mL aliquots of 100% ethanol, mixed with scintillation fluid (10 mL) and then counted in a Beckman LS3801 scintillation counter. […]

With `CCC12CCCCN(C1)C(=O)CCc1cncn1Cc1ccc(C#N)c(c1)Oc1cccc2c1` (racemic) [Example 1, (±) 5H-17-Ethyl-17,22-methano-18,19,20,21,23,24-hexahydro-23-oxo-6,10: 12,16-dimetheno-25H-imidazo[3,4-h]-[1,11,16]oxadiazacyclodocosane-9-carbonitrile] the IC50 was no more than 10 µM.
